Assay results: PubChem BioAssay AID248 (DTP/NCI, 2004)
“And” between values parts separate entries of the source, which are not always exact repeats. Equal values may be shown once. Toxic doses and inconclusive results are not listed.

Tested on: L1210 leukemia ip in BDF1 mice, survival T/C
Assay: NCI In Vivo Anticancer Drug Screen. Data for tumor model L1210 Leukemia (intraperitoneal) in B6D2F1 (BDF1) mice
Conditions: endpoint: mean survival time, higher = longer survival
How it was run: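 Transplanted-tumor mice were given test agent; controls received vehicle only. Survival readings from the two groups were divided (treated over control).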

[1] = dose: 25.0 mg/kg/injection, schedule: Q01DX009 (ip), vehicle: Klucel (hydroxypropylcellulose) (HPC)
[2] = dose: 50.0 mg/kg/injection, schedule: Q01DX009 (ip), vehicle: Klucel (hydroxypropylcellulose) (HPC)
[3] = dose: 100.0 mg/kg/injection, schedule: Q01DX001 (ip), vehicle: saline
[4] = dose: 200.0 mg/kg/injection, schedule: Q01DX001 (ip), vehicle: saline
[5] = dose: 400.0 mg/kg/injection, schedule: Q01DX001 (ip), vehicle: saline
[6] = dose: 100.0 mg/kg/injection, schedule: Q01DX009 (ip), vehicle: Klucel (hydroxypropylcellulose) (HPC)
[7] = dose: 50.0 mg/kg/injection, schedule: Q01DX001 (ip), vehicle: saline

CC(/C=N/NC(=O)c1cnccn1)=N/NC(=O)c1cnccn1
T/C (dose: 50.0 mg/kg/injection, schedule: Q01DX001 (ip), vehicle: water): 108 % of control
T/C (dose: 100.0 mg/kg/injection, schedule: Q01DX001 (ip), vehicle: water): 108 % of control
T/C (dose: 200.0 mg/kg/injection, schedule: Q01DX001 (ip), vehicle: water): 103 % of control
T/C (dose: 400.0 mg/kg/injection, schedule: Q01DX001 (ip), vehicle: water): 110 % of control

c1ccc2c3c(sc2c1)CNCC3
T/C [1]: 107 % of control
T/C [2]: 101 % of control

CS(=O)(=O)NC(=O)C[P+](c1ccccc1)(c1ccccc1)c1ccccc1
T/C [3]: 96 % of control
T/C [4]: 89 % of control
T/C [5]: 98 % of control

Fc1ccc(NC(=S)NCCN2CCCC2)cc1
T/C [1]: 100 % of control
T/C [2]: 117 % of control
T/C [6]: 100 % of control and 102 % of control

O=C(ONC(=O)[C@@H]1CCCC[C@H]1C(=O)NOC(=O)c1ccccc1)c1ccccc1
T/C (dose: 50.0 mg/kg/injection, schedule: Q01DX001 (ip), vehicle: Klucel (hydroxypropylcellulose) (HPC)): 97 % of control
T/C [2]: 92 % of control
T/C (dose: 100.0 mg/kg/injection, schedule: Q01DX001 (ip), vehicle: Klucel (hydroxypropylcellulose) (HPC)): 97 % of control
T/C [6]: 92 % of control
T/C (dose: 200.0 mg/kg/injection, schedule: Q01DX001 (ip), vehicle: Klucel (hydroxypropylcellulose) (HPC)): 97 % of control
T/C (dose: 200.0 mg/kg/injection, schedule: Q01DX009 (ip), vehicle: Klucel (hydroxypropylcellulose) (HPC)): 103 % of control
T/C (dose: 400.0 mg/kg/injection, schedule: Q01DX001 (ip), vehicle: Klucel (hydroxypropylcellulose) (HPC)): 96 % of control
T/C (dose: 400.0 mg/kg/injection, schedule: Q01DX009 (ip), vehicle: Klucel (hydroxypropylcellulose) (HPC)): 97 % of control

O=C1C2=C(CCCC2)C(=O)c2ccccc21
T/C [7]: 93 % of control
T/C [3]: 100 % of control
T/C [4]: 96 % of control
T/C [5]: 102 % of control

N/C(=N/N=C/c1ccc(O)cc1)N[N+](=O)[O-]
T/C (dose: 100.0 mg/kg/injection, schedule: Q01DX009 (ip), vehicle: saline with Tween-80): 105 % of control
T/C (dose: 200.0 mg/kg/injection, schedule: Q01DX009 (ip), vehicle: saline with Tween-80): 89 % of control
T/C (dose: 400.0 mg/kg/injection, schedule: Q01DX009 (ip), vehicle: saline with Tween-80): 90 % of control

CCCCCCCCCCCC(=O)SCCSC(=O)CCCCCCCCCCC
T/C (dose: 100.0 mg/kg/injection, schedule: Q04DX002 (ip), vehicle: other): 94 % of control and 104 % of control
T/C (dose: 100.0 mg/kg/injection, schedule: Q04DX003 (ip), vehicle: other): 86 % of control and 89 % of control
T/C (dose: 200.0 mg/kg/injection, schedule: Q04DX002 (ip), vehicle: other): 113 % of control and 90 % of control
T/C (dose: 200.0 mg/kg/injection, schedule: Q04DX003 (ip), vehicle: other): 96 % of control and 89 % of control
T/C (dose: 400.0 mg/kg/injection, schedule: Q04DX002 (ip), vehicle: other): 103 % of control and 109 % of control
T/C (dose: 400.0 mg/kg/injection, schedule: Q04DX003 (ip), vehicle: other): 89 % of control and 92 % of control

COC1=C(Nc2ccc(C)cc2)C(=O)C(OC)=C(Nc2ccc(C)cc2)C1=O
T/C [7]: 98 % of control
T/C [3]: 93 % of control
T/C [4]: 95 % of control

O=C(CBr)c1cc(-c2cccc(I)c2)nc2c(Cl)cc(Cl)cc12
T/C (dose: 100.0 mg/kg/injection, schedule: Q04DX003 (ip), vehicle: saline with Tween-80): 101 % of control
T/C (dose: 200.0 mg/kg/injection, schedule: Q04DX003 (ip), vehicle: saline with Tween-80): 93 % of control
T/C (dose: 400.0 mg/kg/injection, schedule: Q04DX003 (ip), vehicle: saline with Tween-80): 93 % of control

Cc1cccc2c(Nc3ccc(NS(C)(=O)=O)cc3)c3ccc([N+](=O)[O-])cc3nc12
T/C (dose: 4.8 mg/kg/injection, schedule: Q01DX009 (ip), vehicle: Klucel (hydroxypropylcellulose) (HPC)): 151 % of control
T/C (dose: 9.5 mg/kg/injection, schedule: Q01DX009 (ip), vehicle: Klucel (hydroxypropylcellulose) (HPC)): 176 % of control
T/C (dose: 10.0 mg/kg/injection, schedule: Q01DX009 (sc), vehicle: saline): 107 % of control
T/C (dose: 19.0 mg/kg/injection, schedule: Q01DX009 (ip), vehicle: Klucel (hydroxypropylcellulose) (HPC)): 154 % of control
T/C (dose: 20.0 mg/kg/injection, schedule: Q01DX009 (sc), vehicle: saline): 121 % of control
T/C (dose: 40.0 mg/kg/injection, schedule: Q01DX009 (sc), vehicle: saline): 123 % of control
T/C (dose: 80.0 mg/kg/injection, schedule: Q01DX009 (sc), vehicle: saline): 152 % of control
T/C (dose: 178.0 mg/kg/injection, schedule: Q01DX001 (ip), vehicle: saline): 102 % of control
T/C (dose: 267.0 mg/kg/injection, schedule: Q01DX001 (ip), vehicle: saline): 97 % of control
T/C [5]: 103 % of control
